In US8137509B2, “Asymmetric synthesis of rocaglamides via enantioselective photocycloaddition mediated by chiral brønsted acids” (Trustees of Boston University, priority 2006, dated 2012):

Legend:
human cancer cells = conditions: compared with TAXOL; cited from earlier work

melting point | SMILES | cytotoxic activity (human cancer cells)
83 to 85 °C | COC(=O)C1C(c2ccccc2)[C@]2(c3ccc(OC)cc3)Oc3cc(OC)cc(OC)c3[C@@]1(O)C2=O (some centres unmarked) | 
 | COC(=O)[C@H]1[C@@H](O)[C@@]2(O)c3c(OC)cc(O[C@@H]4O[C@@H]([C@H](O)CO)CO[C@H]4OC)cc3O[C@@]2(c2ccc(OC)cc2)[C@@H]1c1ccccc1 [silvestrol B, silvestrol] | comparable to the anticancer drug TAXOL®
